{
  "source": "BindingDB's records for patent US20250236609",
  "about": "(Deciphera Pharmaceuticals, 2025)",
  "target": "Phosphatidylinositol 3-kinase catalytic subunit type 3 (Homo sapiens, UniProt Q8NEB9)",
  "sequence (Q8NEB9 whole entry)": "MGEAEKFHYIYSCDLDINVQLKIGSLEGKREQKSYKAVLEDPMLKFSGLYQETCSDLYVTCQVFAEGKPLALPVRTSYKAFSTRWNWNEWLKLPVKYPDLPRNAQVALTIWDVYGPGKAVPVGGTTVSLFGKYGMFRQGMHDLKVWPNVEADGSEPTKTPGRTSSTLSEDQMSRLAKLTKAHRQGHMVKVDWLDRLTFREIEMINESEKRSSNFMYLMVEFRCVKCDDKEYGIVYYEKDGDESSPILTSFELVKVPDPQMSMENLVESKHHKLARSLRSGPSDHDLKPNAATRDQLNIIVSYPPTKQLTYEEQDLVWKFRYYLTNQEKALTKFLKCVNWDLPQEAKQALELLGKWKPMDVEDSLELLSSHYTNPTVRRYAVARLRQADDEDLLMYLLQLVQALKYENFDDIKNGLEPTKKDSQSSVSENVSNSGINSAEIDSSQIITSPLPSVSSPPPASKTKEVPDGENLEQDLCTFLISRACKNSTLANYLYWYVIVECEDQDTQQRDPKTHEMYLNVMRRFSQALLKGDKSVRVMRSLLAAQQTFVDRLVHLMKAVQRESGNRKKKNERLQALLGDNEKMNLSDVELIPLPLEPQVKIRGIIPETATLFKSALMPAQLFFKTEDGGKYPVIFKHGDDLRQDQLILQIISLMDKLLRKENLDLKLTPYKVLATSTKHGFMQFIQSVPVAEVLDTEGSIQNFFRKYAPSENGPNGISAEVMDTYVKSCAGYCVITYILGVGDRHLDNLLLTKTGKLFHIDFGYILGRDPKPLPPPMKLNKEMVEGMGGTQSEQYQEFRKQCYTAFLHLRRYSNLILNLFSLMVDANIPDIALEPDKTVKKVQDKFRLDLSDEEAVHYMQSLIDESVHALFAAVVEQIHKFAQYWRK",
  "assay": "Biochemical Assay for VPS34",
  "procedure": "Activity of VPS34 kinase was determined using an ADP-Glo kinase activity assay (Promega Corp). Assays were conducted in 384-well plates (5 μL assay volume) using 25 nM VPS34 (ThermoFisher Scientific), […] PI:3PS Lipid Kinase Substrate (Promega Corp.), and 1 mM ATP in kinase buffer. Inhibition of VPS34 was measured by adding serial diluted test compound (final assay concentration of 0.1% DMSO) followed by a 1-hour incubation at 37° C. ADP-Glo reagent was then added […] followed by a 40 min incubation at rt. Kinase detection reagent was then added […] and followed by a 60 min incubation at rt. Luminescence was then detected. The RLU at each compound concentration of was converted to percent inhibition using controls (i.e., reaction with no test compound and reaction with a known inhibitor) and IC50 values were calculated by fitting a four-parameter sigmoidal curve to the data using GeneData Screener software.",
  "data": [
    {"compound": "COC(=O)Nc1cc(-c2cc(-c3cnccc3C(F)(F)F)[nH]c(=O)c2)c(C)cn1", "note": "[US20250236609, Example 4]", "values": [
      {"measurement": "IC50", "result": "< 100", "unit": "nM"}
    ]}
  ]
}
